This note sets out measurements from PMC6407917, “Identification of GSK3186899/DDD853651 as a Preclinical Development Candidate for the Treatment of Visceral Leishmaniasis” (Journal of Medicinal Chemistry, 2018).

Targets include MAP3K5 (Homo sapiens, UniProt Q99683); CAMKK2 (Homo sapiens, UniProt Q96RR4); PKMYT1 (Homo sapiens, UniProt Q99640); FN3KRP (Homo sapiens, UniProt Q9HA64); BTK (Homo sapiens, UniProt Q06187); SRC (Homo sapiens, UniProt P12931); LCK (Homo sapiens, UniProt P06239); TLK2 (Homo sapiens, UniProt Q86UE8); IRAK4 (Homo sapiens, UniProt Q9NWZ3); PLK4 (Homo sapiens, UniProt O00444); EIF2AK1 (Homo sapiens, UniProt Q9BQI3); PKN3 (Homo sapiens, UniProt Q6P5Z2); MASTL (Homo sapiens, UniProt Q96GX5); CSNK1A1 (Homo sapiens, UniProt P48729); CSNK1G3 (Homo sapiens, UniProt Q9Y6M4); NUAK1 (Homo sapiens, UniProt O60285); EPHB3 (Homo sapiens, UniProt P54753); MAPK3 (Homo sapiens, UniProt P27361); CAMKK1 (Homo sapiens, UniProt Q8N5S9); NTRK1 (Homo sapiens, UniProt P04629); STK16 (Homo sapiens, UniProt O75716).

Test in all cases: biochemical
Common to all, as to set-up: species or system HEK293/K-562/placenta mixed human extract; Kinobeads chemoproteomic competition binding, quantified by TMT LC-MS/MS, dose response up to 20 uM

Chain of PKN3 (Q6P5Z2 whole entry): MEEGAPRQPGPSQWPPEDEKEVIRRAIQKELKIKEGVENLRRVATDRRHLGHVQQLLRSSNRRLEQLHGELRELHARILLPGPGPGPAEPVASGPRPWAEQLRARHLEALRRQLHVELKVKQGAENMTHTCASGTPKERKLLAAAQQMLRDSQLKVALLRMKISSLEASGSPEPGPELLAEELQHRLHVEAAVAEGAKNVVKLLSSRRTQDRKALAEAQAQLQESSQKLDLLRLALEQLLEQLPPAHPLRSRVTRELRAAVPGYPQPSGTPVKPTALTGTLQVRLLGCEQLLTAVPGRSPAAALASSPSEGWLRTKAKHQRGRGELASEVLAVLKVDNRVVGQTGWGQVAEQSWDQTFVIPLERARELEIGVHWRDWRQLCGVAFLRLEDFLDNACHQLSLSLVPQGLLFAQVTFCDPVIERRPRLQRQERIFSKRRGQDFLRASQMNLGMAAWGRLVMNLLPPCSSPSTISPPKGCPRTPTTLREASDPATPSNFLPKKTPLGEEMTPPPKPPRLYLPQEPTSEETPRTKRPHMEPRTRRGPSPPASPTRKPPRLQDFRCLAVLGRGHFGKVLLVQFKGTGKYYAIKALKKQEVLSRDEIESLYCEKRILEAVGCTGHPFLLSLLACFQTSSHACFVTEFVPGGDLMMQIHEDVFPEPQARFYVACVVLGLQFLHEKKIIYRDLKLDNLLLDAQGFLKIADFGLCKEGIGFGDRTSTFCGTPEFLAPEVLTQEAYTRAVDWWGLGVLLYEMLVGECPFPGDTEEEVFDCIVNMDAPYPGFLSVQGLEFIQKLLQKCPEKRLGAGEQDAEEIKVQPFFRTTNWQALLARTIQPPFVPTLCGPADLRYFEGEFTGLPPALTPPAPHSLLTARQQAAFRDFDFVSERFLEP
Chain of PLK4 (O00444 whole entry): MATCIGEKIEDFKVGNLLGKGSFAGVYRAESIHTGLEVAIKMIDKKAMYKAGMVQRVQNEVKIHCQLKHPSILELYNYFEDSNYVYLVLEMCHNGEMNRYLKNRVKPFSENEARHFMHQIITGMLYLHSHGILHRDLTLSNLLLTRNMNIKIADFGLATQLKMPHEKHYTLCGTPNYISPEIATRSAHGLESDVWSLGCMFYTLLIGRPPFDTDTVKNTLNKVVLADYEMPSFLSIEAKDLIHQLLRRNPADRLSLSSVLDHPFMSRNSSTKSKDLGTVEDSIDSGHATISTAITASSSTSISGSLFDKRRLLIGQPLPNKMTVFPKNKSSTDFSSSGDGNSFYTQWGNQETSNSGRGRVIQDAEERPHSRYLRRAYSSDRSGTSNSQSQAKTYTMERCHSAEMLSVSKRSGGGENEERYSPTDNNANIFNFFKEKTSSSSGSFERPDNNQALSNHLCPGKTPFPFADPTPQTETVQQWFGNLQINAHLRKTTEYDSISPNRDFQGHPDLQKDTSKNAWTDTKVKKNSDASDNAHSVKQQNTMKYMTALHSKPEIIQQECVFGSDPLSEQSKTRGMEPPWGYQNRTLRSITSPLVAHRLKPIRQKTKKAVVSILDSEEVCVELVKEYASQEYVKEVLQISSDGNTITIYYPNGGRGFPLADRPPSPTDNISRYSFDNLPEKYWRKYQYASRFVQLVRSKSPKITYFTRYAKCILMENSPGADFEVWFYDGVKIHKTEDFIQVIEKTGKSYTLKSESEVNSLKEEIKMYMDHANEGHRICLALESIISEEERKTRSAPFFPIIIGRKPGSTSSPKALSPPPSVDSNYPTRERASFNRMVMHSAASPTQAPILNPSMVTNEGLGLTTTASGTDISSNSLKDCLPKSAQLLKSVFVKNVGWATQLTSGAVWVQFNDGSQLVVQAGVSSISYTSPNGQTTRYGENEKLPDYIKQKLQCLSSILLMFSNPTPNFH
Chain of CSNK1G3 (Q9Y6M4 whole entry): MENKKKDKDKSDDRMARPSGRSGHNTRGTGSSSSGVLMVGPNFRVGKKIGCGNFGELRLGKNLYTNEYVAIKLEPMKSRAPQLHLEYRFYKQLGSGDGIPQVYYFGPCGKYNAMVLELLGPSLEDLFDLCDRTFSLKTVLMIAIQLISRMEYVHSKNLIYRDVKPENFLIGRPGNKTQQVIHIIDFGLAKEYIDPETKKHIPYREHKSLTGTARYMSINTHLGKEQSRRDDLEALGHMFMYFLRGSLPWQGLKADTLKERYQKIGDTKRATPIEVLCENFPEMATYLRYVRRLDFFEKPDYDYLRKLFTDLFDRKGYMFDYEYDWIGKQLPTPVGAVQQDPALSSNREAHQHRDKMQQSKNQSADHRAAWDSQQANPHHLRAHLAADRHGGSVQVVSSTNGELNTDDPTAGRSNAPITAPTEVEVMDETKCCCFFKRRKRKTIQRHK
Chain of BTK (Q06187 whole entry): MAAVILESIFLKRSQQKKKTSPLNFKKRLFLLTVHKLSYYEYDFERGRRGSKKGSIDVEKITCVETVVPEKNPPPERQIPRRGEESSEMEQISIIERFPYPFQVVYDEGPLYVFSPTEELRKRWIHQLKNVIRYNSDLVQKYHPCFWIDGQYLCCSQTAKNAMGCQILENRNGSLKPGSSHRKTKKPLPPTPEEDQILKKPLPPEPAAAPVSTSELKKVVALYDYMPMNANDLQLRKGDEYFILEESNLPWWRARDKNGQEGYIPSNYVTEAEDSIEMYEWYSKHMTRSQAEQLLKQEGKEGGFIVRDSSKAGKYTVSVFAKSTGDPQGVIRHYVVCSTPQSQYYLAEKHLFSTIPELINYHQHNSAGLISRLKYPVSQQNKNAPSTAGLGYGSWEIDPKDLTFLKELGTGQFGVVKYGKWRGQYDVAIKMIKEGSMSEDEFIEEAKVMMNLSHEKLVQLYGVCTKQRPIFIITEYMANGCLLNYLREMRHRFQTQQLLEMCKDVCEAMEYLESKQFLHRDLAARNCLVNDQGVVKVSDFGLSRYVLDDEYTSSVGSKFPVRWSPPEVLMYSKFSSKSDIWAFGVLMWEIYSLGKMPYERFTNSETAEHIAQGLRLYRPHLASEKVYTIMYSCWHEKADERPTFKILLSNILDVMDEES
Chain of NUAK1 (O60285 whole entry): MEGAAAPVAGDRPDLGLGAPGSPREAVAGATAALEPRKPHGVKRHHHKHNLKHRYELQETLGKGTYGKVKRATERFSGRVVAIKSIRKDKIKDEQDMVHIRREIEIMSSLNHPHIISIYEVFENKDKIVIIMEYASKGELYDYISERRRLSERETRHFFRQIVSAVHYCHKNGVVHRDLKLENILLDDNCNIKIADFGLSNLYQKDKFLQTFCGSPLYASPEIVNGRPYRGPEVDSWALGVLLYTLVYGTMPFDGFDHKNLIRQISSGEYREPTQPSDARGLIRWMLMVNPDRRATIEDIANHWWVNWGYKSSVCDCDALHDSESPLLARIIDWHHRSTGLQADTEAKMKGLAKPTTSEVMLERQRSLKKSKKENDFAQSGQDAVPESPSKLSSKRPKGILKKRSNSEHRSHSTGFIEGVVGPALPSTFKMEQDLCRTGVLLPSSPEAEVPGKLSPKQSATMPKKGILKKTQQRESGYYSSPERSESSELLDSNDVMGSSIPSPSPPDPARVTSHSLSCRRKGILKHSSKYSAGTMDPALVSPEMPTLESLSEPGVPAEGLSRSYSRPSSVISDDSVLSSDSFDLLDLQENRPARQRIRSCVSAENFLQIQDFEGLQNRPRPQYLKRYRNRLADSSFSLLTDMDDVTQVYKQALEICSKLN
Chain of IRAK4 (Q9NWZ3 whole entry): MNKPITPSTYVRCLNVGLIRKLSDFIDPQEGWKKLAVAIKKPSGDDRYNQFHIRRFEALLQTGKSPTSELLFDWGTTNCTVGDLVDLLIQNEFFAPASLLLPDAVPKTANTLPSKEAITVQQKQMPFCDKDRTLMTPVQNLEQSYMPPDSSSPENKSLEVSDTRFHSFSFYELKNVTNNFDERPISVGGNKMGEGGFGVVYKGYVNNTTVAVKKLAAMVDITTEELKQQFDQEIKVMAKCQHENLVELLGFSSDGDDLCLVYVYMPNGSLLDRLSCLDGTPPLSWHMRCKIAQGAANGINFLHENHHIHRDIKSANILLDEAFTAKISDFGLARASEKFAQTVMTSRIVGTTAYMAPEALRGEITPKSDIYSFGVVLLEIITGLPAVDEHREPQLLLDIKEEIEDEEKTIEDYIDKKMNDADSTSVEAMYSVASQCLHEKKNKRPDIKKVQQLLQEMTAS
Chain of LCK (P06239 whole entry): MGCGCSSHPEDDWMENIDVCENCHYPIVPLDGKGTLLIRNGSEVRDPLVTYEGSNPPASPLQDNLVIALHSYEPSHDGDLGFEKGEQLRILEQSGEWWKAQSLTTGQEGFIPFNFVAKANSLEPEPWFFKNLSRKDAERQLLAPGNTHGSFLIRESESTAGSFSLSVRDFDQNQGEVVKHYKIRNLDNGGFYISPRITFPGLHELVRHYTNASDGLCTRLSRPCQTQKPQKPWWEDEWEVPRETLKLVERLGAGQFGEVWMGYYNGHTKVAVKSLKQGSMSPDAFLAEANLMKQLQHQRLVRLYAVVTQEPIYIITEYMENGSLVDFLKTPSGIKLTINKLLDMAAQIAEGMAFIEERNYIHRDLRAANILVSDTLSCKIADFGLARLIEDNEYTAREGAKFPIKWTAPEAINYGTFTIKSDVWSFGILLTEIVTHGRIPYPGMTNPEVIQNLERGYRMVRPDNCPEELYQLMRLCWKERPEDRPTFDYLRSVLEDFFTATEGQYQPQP
Chain of CSNK1A1 (P48729 whole entry): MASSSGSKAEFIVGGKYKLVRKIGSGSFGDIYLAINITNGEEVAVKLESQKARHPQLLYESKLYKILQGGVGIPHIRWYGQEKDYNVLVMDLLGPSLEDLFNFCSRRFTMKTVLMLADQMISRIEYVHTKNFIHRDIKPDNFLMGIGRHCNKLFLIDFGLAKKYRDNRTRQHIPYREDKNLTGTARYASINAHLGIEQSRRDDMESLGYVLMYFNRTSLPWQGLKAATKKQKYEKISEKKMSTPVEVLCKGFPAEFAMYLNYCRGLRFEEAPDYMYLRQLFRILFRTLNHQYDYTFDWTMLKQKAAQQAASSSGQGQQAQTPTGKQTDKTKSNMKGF

The IC50 is the concentration that gives 50% inhibition. On to `COc1ccccc1-c1n[nH]c2nc(N[C@H]3CC[C@H](NS(=O)(=O)CCC(F)(F)F)CC3)nc(OC)c12` [compound 31, 3,3,3-Trifluoro-N-(trans-4-((4-methoxy-3-(2-methoxyphenyl)-1H-pyrazolo[3,4-d]pyrimidin-6-yl)amino)cyclohexyl)propane-1-sulfonamide], for which the IC50 at MAP3K5 was no less than 20 µM; on CAMKK2, 8.6 µM; on PKMYT1, no less than 20 µM; on FN3KRP it was no less than 20 µM; at BTK, no less than 20 µM; at SRC, no less than 20 µM. Besides, the IC50 on LCK, on TLK2, on IRAK4, at PLK4, on EIF2AK1 and at PKN3 was no less than 20 µM each time. Moreover, the IC50 on MASTL, at CSNK1A1, on CSNK1G3, on NUAK1, at EPHB3 and at MAPK3 was no less than 20 µM each time. Further, the IC50 on CAMKK1, on NTRK1 and at STK16 was no less than 20 µM each time.
